Assay results published in ChEMBL document CHEMBL4251606, “Design and characterization of α-lipoic acyl shikonin ester twin drugs as tubulin and PDK1 dual inhibitors” (Eur J Med Chem, 2018).
The source made the active and inactive calls. The calls are words filed in the database; no cut-off is given here.

Legend:
[1] = tested on: HepG2; assay: Antiproliferative activity against human HepG2 cells after 24 hrs by MTT assay; assay type: functional, cell-based; conditions: HepG2, 24 h
[2] = tested on: MDA-MB-231; assay: Antiproliferative activity against human MDA231 cells after 24 hrs by MTT assay; assay type: functional, cell-based; conditions: MDA-MB-231, 24 h
[3] = tested on: HeLa; assay: Antiproliferative activity against human HeLa cells after 24 hrs by MTT assay; assay type: functional, cell-based
[4] = tested on: A549; assay: Antiproliferative activity against human A549 cells after 24 hrs by MTT assay; assay type: functional, cell-based; conditions: A549, 24 h
[5] = tested on: L02; assay: Antiproliferative activity against human LO2 cells after 24 hrs by MTT assay; assay type: cell-based; conditions: L02, 24 h
[6] = tested on: HEK-293T; assay: Antiproliferative activity against human 293T cells after 24 hrs by MTT assay; assay type: cell-based
[7] = tested on: HeLa; assay: Cell cycle arrest in human HeLa cells assessed as accumulation of cells at G1 phase at 1 uM after 24 hrs by propidium iodide staining-based FACScan flow cytometric analysis (reference value: 64.58%); assay type: functional
[8] = tested on: HeLa; assay: Cell cycle arrest in human HeLa cells assessed as accumulation of cells at S phase at 1 uM after 24 hrs by propidium iodide staining-based FACScan flow cytometric analysis (reference value: 20.45%); assay type: functional
[9] = tested on: HeLa; assay: Cell cycle arrest in human HeLa cells assessed as accumulation of cells at G2/M phase at 1 uM after 24 hrs by propidium iodide staining-based FACScan flow cytometric analysis (reference value: 14.97%); assay type: functional
[10] = tested on: HeLa; assay: Cell cycle arrest in human HeLa cells assessed as accumulation of cells at G1 phase at 2 uM after 24 hrs by propidium iodide staining-based FACScan flow cytometric analysis (reference value: 64.58%); assay type: functional
[11] = tested on: HeLa; assay: Cell cycle arrest in human HeLa cells assessed as accumulation of cells at S phase at 2 uM after 24 hrs by propidium iodide staining-based FACScan flow cytometric analysis (reference value: 20.45%); assay type: functional
[12] = tested on: HeLa; assay: Cell cycle arrest in human HeLa cells assessed as accumulation of cells at G2/M phase at 2 uM after 24 hrs by propidium iodide staining-based FACScan flow cytometric analysis (reference value: 14.97%); assay type: functional
[13] = tested on: HeLa; assay: Cell cycle arrest in human HeLa cells assessed as accumulation of cells at G1 phase at 4 uM after 24 hrs by propidium iodide staining-based FACScan flow cytometric analysis (reference value: 64.58%); assay type: functional
[14] = tested on: HeLa; assay: Cell cycle arrest in human HeLa cells assessed as accumulation of cells at S phase at 4 uM after 24 hrs by propidium iodide staining-based FACScan flow cytometric analysis (reference value: 20.45%); assay type: functional
[15] = tested on: HeLa; assay: Cell cycle arrest in human HeLa cells assessed as accumulation of cells at G2/M phase at 4 uM after 24 hrs by propidium iodide staining-based FACScan flow cytometric analysis (reference value: 14.97%); assay type: functional
[16] = tested on: HeLa; assay: Inhibition of microtubule polymerization in human HeLa cells at 4 uM after 24 hrs by rhodamine/DAPI staining-based confocal microscopic analysis; assay type: cell-based
[17] = tested on: HeLa; assay: Antitumor activity against human HeLa cells xenografted in nude mouse assessed as reduction in tumor size at 1 mg/kg, ip administered once in every 2 days for 15 days relative to control; assay type: functional, organism-based
[18] = tested on: Mus musculus; assay: Toxicity in nude mouse xenografted with human HeLa cells assessed as loss in body weight at 1 mg/kg, ip administered once in every 2 days for 15 days; assay type: organism-based; conditions: in vivo
[19] = molecular target: [Pyruvate dehydrogenase (acetyl-transferring)] kinase isozyme 1, mitochondrial (Homo sapiens) (UniProt Q15118); conditions: HeLa, 10 mM
Description: Inhibition of PDK1 in human HeLa cells assessed as increase in PDH-E1 alpha expression at 10 mM by Western blot analysis

[20] = molecular target: [Pyruvate dehydrogenase (acetyl-transferring)] kinase isozyme 1, mitochondrial (Homo sapiens) (UniProt Q15118); conditions: HeLa, 10 mM; remark: listed apart in the source
Description: Inhibition of PDK1 in human HeLa cells assessed as decrease in PDH-E1 alpha p-ser300 expression at 10 mM by Western blot analysis

[21] = molecular target: [Pyruvate dehydrogenase (acetyl-transferring)] kinase isozyme 1, mitochondrial (Homo sapiens) (UniProt Q15118); conditions: HeLa, 10 mM; remark: listed apart in the source
Description: Inhibition of PDK1 in human HeLa cells assessed as decrease in PDH-E1 alpha p-ser232 expression at 10 mM by Western blot analysis

| Structure (SMILES) | IC50 [1] | IC50 [2] | IC50 [3] | IC50 [4] | IC50 [5] | IC50 [6] | further results |
| --- | --- | --- | --- | --- | --- | --- | --- |
| COc1ccc(C2SCC[C@@H](CCCCC(=O)O[C@H](CC=C(C)C)C3=CC(=O)c4c(O)ccc(O)c4C3=O)S2)cc1OC (stereo partly specified) | 4.34 µM | 16.7 µM | 21.9 µM | 19.3 µM | 99.3 µM | 116 µM | – |
| CC(C)=CC[C@@H](O)C1=CC(=O)c2c(O)ccc(O)c2C1=O [SHIKONIN] | 6.92 µM | 8.75 µM | 6.86 µM | 3.53 µM | 3.41 µM | 62.8 µM | Activity [7]: 63.83%; Activity [8]: 17.42%; Activity [9]: 18.75%; Activity [10]: 62.72%; Activity [11]: 13.25%; Activity [12]: 24.03%; Activity [13]: 57.75%; Activity [14]: 14.13%; Activity [15]: 28.12%; inhibition [16]: Active; Activity [17]: Active; Activity [18]: Toxic |
| CC(C)=CC[C@@H](OC(=O)CCCC[C@@H]1CCSC(C2CCCCC2)S1)C1=CC(=O)c2c(O)ccc(O)c2C1=O (stereo partly specified) | 28.4 µM | 19.6 µM | 21.9 µM | 27.2 µM | 108 µM | 116 µM | – |
| CC(C)=CC[C@@H](OC(=O)CCCC[C@@H]1CCSC(c2ccc(C(F)(F)F)cc2)S1)C1=CC(=O)c2c(O)ccc(O)c2C1=O (stereo partly specified) | 11.8 µM | 9.57 µM | 23.4 µM | 10.2 µM | 90.9 µM | 73.4 µM | – |
| COc1ccccc1C1SCC[C@@H](CCCCC(=O)O[C@H](CC=C(C)C)C2=CC(=O)c3c(O)ccc(O)c3C2=O)S1 (stereo partly specified) | 26.7 µM | 24.2 µM | 9.96 µM | 6.03 µM | 116 µM | 79.3 µM | – |
| CC(C)=CC[C@@H](OC(=O)CCCC[C@@H]1CCSC(c2cccc(Cl)c2Cl)S1)C1=CC(=O)c2c(O)ccc(O)c2C1=O (stereo partly specified) | 5.08 µM | 25.8 µM | 13.6 µM | 10.7 µM | 119 µM | 97.8 µM | – |
| CC(C)=CC[C@@H](OC(=O)CCCC[C@@H]1CCSC(c2cccc(Br)c2)S1)C1=CC(=O)c2c(O)ccc(O)c2C1=O (stereo partly specified) | 21.9 µM | 26.8 µM | 13.3 µM | 22.2 µM | 93 µM | 102 µM | – |
| CC(C)=CC[C@@H](OC(=O)CCCC[C@@H]1CCSC(c2ccc(C(C)C)cc2)S1)C1=CC(=O)c2c(O)ccc(O)c2C1=O (stereo partly specified) | 25.9 µM | 8.97 µM | 17.5 µM | 19.6 µM | 85.6 µM | 108 µM | – |
| O=C(O)C(Cl)Cl [DICHLOROACETIC ACID] | > 100 µM | > 100 µM | > 100 µM | > 100 µM | > 100 µM | > 100 µM | inhibition [19]: Active; inhibition [20]: Active; inhibition [21]: Active |
| CC(C)=CC[C@@H](OC(=O)CCCC[C@@H]1CCSC(c2ccc([N+](=O)[O-])cc2)S1)C1=CC(=O)c2c(O)ccc(O)c2C1=O (stereo partly specified) | 20.4 µM | 16.2 µM | 26.9 µM | 22.2 µM | 96.2 µM | 95.4 µM | – |
| CC(C)=CC[C@@H](OC(=O)CCCC[C@@H]1CCSS1)C1=CC(=O)c2c(O)ccc(O)c2C1=O | 17.4 µM | 25.9 µM | 28.9 µM | 14.6 µM | 103 µM | 83.5 µM | – |
